Measurements from ChEMBL document CHEMBL3407472, “Multi-parameter optimization of aza-follow-ups to BI 207524, a thumb pocket 1 HCV NS5B polymerase inhibitor. Part 2: Impact of lipophilicity on promiscuity and in vivo toxicity” (Bioorg Med Chem Lett, 2015).

Legend:
[1] = Half life in cynomolgous monkey at 5 mg/kg, po and 2 mg/kg, iv; format: ADME, organism-based, Macaca fascicularis; conditions: cynomolgus monkey, in vivo
[2] = Lipophilicity, log D of the compound at pH 7.4; format: physicochemical; conditions: buffer
[3] = AUC in dog at 5 mg/kg, po and 2 mg/kg, iv; format: ADME, organism-based, Canis lupus familiaris; conditions: plasma
[4] = Clearance in dog at 5 mg/kg, po and 2 mg/kg, iv; format: ADME, organism-based, Canis lupus familiaris; conditions: in vivo
[5] = Ratio of drug uptake in liver to plasma of rat at 5 mg/kg, po and 2 mg/kg, iv after 6 to 8 hrs; format: ADME, organism-based
[6] = Clearance in rat at 5 mg/kg, po and 2 mg/kg, iv; format: ADME, organism-based; conditions: in vivo
[7] = Half life in dog at 5 mg/kg, po and 2 mg/kg, iv; format: ADME, organism-based, Canis lupus familiaris; conditions: in vivo
[8] = molecular target: Voltage-gated inwardly rectifying potassium channel KCNH2 (Homo sapiens, UniProt Q12809); experiment: Inhibition of human ERG channel
Voltage-gated inwardly rectifying potassium channel KCNH2, sequence (Q12809 whole entry): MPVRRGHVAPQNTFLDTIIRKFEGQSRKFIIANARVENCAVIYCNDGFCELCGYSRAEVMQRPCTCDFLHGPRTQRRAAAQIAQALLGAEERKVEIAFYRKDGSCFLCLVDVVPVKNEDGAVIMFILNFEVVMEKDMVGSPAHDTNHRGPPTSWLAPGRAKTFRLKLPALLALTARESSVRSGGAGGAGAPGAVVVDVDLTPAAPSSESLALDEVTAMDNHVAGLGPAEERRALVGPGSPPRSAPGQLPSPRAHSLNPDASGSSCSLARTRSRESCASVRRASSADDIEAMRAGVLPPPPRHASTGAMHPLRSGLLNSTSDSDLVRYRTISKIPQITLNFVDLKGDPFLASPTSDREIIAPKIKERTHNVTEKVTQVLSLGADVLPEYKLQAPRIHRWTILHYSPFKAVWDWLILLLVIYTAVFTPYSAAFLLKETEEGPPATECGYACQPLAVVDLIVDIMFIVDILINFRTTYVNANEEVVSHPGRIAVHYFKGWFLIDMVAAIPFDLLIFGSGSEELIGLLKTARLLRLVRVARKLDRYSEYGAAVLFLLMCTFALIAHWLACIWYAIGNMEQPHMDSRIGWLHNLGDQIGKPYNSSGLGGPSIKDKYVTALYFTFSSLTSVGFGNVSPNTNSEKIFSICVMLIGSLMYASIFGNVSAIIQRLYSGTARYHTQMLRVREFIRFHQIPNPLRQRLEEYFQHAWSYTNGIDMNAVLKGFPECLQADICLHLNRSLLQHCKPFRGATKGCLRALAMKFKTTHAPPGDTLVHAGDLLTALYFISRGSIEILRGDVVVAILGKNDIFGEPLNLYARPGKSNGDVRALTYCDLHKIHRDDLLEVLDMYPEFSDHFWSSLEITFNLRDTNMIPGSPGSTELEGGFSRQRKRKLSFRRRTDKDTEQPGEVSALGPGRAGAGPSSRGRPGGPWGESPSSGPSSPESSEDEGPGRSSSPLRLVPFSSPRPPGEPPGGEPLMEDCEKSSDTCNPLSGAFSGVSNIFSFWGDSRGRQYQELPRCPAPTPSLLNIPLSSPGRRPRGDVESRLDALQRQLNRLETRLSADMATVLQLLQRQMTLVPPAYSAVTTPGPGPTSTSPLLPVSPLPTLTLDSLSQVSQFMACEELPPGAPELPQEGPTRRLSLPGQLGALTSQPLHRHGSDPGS

[9] = Half life in rat liver microsomes at 2 uM; format: ADME
[10] = Bioavailability in dog at 5 mg/kg, po and 2 mg/kg, iv; format: ADME, organism-based, Canis lupus familiaris; conditions: in vivo
[11] = Clearance in cynomolgous monkey at 5 mg/kg, po and 2 mg/kg, iv; format: ADME, organism-based, Macaca fascicularis; conditions: cynomolgus monkey, in vivo
[12] = Bioavailability in cynomolgous monkey at 5 mg/kg, po and 2 mg/kg, iv; format: ADME, organism-based, Macaca fascicularis; conditions: cynomolgus monkey, in vivo
[13] = Induction of action potential duration in guinea pig papillary muscle cells at 30 uM; format: functional, Cavia porcellus
[14] = Volume of distribution at steady state in cynomolgous monkey at 5 mg/kg, po and 2 mg/kg, iv; format: ADME, organism-based, Macaca fascicularis; conditions: cynomolgus monkey, in vivo, read-out: Vdss
[15] = Half life in rat at 5 mg/kg, po and 2 mg/kg, iv; format: ADME, organism-based; conditions: in vivo
Hepatitis C virus [16] = experiment: Antiviral activity against Hepatitis C virus genotype 1a infected in human Huh cells assessed as inhibition of viral replication by RT-PCR-based replicon assay; format: functional, cell-based, Hepacivirus hominis; conditions: subtype 1a
[17] = Volume of distribution at steady state in dog at 5 mg/kg, po and 2 mg/kg, iv; format: ADME, organism-based, Canis lupus familiaris; conditions: in vivo, read-out: Vdss
[18] = Cmax in rat at 5 mg/kg, po and 2 mg/kg, iv; format: ADME, organism-based; conditions: in vivo
[19] = Volume of distribution at steady state in rat at 5 mg/kg, po and 2 mg/kg, iv; format: ADME, organism-based; conditions: in vivo, read-out: Vdss
[20] = AUC in cynomolgous monkey at 5 mg/kg, po and 2 mg/kg, iv; format: ADME, organism-based, Macaca fascicularis; conditions: cynomolgus monkey, plasma
[21] = Cmax in dog at 5 mg/kg, po and 2 mg/kg, iv; format: ADME, organism-based, Canis lupus familiaris; conditions: in vivo
[22] = Half life in human liver microsomes at 2 uM; format: ADME
[23] = Half life in cynomolgous monkey liver microsomes at 2 uM; format: ADME, Macaca fascicularis; conditions: cynomolgus monkey
[24] = Cmax in cynomolgous monkey at 5 mg/kg, po and 2 mg/kg, iv; format: ADME, organism-based, Macaca fascicularis; conditions: cynomolgus monkey, in vivo
[25] = Permeability from apical to basolateral side of human Caco2 cells; format: ADME, cell-based; conditions: Caco-2, read-out: permeability
[26] = AUC in rat at 5 mg/kg, po and 2 mg/kg, iv; format: ADME, organism-based; conditions: plasma
[27] = Bioavailability in rat at 5 mg/kg, po and 2 mg/kg, iv; format: ADME, organism-based; conditions: in vivo
Hepatitis C virus [28] = experiment: Antiviral activity against Hepatitis C virus genotype 1b infected in human Huh cells assessed as inhibition of viral replication by RT-PCR-based replicon assay; format: functional, cell-based, Hepacivirus hominis
[29] = Half life in dog liver microsomes at 2 uM; format: ADME, Canis lupus familiaris
Cathepsin G = molecular target: T1, Cathepsin G (Homo sapiens, UniProt P08311); experiment: Inhibition of cathepsin G (unknown origin)
T1 sequence (P08311 whole entry): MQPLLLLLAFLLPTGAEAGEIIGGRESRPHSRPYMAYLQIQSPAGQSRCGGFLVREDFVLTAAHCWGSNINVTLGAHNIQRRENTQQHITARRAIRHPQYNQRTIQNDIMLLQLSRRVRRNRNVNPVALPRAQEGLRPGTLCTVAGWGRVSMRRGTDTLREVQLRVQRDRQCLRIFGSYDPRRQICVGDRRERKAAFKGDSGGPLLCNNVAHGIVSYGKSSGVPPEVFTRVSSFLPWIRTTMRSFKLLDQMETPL

[30] = molecular target: GABA-A receptor; agonist GABA site; experiment: Inhibition of GABAA receptor (unknown origin); format: protein-complex assay, Homo sapiens
[31] = molecular target: T2, Prostaglandin G/H synthase 2 (Homo sapiens, UniProt P35354); experiment: Inhibition of COX2 (unknown origin)
T2 sequence (P35354 whole entry): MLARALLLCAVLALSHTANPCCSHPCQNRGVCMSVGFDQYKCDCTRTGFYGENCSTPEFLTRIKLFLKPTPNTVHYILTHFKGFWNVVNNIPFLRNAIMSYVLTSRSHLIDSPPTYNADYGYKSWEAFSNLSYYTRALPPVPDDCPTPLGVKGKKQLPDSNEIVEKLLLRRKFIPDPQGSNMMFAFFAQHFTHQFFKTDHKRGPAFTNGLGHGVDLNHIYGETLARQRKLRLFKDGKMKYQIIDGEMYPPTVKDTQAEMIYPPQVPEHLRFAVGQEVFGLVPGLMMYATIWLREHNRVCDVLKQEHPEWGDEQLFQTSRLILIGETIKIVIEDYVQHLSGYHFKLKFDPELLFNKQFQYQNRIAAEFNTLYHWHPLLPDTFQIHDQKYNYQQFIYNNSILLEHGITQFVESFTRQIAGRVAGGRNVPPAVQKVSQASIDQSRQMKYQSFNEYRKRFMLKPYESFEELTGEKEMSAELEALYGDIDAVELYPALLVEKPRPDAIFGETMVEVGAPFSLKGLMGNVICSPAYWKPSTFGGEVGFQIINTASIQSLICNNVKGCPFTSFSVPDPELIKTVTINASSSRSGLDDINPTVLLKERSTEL

[32] = molecular target: T3, Amine oxidase [flavin-containing] A (Homo sapiens, UniProt P21397); experiment: Inhibition of MAO-A (unknown origin)
T3 sequence (P21397 whole entry): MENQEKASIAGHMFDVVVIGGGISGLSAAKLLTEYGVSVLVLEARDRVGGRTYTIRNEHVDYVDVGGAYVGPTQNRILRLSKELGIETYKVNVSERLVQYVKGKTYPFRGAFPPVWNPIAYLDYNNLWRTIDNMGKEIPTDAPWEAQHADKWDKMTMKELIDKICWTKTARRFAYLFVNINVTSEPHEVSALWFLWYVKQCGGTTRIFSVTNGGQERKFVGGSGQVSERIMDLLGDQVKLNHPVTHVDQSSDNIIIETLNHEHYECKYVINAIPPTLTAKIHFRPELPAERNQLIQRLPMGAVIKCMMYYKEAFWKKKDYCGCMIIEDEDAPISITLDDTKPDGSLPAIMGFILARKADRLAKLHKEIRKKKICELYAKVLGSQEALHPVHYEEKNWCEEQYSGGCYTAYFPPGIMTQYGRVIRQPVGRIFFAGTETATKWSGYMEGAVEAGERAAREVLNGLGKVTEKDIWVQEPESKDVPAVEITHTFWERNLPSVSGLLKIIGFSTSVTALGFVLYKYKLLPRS

[33] = molecular target: T4, Polyunsaturated fatty acid 5-lipoxygenase (Homo sapiens, UniProt P09917); experiment: Inhibition of 5-LO (unknown origin)
T4 sequence (P09917 whole entry): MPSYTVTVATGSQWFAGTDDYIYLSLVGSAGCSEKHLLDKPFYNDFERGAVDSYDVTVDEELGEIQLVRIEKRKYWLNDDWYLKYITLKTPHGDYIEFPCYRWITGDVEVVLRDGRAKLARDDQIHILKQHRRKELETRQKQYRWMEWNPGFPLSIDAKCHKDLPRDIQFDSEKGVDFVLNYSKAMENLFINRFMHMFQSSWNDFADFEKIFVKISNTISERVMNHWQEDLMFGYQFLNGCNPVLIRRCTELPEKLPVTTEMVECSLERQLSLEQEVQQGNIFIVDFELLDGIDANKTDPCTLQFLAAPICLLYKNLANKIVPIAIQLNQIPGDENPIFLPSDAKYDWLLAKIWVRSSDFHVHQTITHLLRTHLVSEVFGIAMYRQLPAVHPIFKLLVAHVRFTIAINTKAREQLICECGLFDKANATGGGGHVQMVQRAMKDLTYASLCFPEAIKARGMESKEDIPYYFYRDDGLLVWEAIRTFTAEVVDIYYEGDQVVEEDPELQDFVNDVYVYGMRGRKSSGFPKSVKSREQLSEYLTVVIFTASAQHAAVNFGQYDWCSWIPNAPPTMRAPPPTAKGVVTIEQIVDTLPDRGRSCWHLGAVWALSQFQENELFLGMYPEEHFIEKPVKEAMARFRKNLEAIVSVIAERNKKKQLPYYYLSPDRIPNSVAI

Glucocorticoid receptor = molecular target: T5, Glucocorticoid receptor (Homo sapiens, UniProt P04150); experiment: Inhibition of glucocorticoid receptor (unknown origin)
T5 sequence (P04150 whole entry): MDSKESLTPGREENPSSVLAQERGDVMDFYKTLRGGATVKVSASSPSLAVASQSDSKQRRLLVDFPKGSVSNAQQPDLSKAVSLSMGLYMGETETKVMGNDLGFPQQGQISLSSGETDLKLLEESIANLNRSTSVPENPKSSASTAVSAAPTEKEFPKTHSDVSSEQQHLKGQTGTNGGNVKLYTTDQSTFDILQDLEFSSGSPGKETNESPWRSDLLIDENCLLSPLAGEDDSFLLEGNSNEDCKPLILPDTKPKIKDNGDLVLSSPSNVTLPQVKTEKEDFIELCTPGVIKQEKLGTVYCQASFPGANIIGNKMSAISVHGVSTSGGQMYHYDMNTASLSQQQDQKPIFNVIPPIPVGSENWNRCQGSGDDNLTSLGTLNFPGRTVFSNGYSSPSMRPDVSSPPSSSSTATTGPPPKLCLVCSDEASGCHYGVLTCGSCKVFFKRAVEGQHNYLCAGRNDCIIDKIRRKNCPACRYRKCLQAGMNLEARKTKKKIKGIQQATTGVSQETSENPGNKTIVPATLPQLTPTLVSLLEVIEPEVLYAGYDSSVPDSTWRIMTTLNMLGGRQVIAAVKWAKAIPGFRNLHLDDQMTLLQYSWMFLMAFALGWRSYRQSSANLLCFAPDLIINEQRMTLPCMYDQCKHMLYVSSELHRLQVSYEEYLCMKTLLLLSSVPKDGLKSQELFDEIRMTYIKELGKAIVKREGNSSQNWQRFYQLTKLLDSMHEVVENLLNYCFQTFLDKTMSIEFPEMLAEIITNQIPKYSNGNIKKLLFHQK

D(1A) dopamine receptor = D(1A) dopamine receptor (Homo sapiens, UniProt P21728); experiment: Inhibition of dopamine D1 receptor (unknown origin)
D(1A) dopamine receptor, sequence (P21728 whole entry): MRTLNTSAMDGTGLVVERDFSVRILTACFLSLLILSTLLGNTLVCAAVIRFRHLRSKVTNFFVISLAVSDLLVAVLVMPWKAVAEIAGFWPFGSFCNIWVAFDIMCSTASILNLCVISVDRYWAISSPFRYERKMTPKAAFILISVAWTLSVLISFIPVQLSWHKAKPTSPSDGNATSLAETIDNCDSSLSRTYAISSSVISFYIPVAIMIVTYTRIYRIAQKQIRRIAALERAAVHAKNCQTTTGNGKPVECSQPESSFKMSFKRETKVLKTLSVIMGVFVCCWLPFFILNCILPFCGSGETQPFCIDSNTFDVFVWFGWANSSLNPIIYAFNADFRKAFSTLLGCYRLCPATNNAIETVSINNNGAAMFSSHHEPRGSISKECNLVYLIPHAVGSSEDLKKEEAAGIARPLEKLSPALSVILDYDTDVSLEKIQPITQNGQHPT

[34] = molecular target: T6, Alpha-2A adrenergic receptor (Homo sapiens, UniProt P08913); experiment: Inhibition of alpha2A adrenergic receptor (unknown origin)
T6 sequence (P08913 whole entry): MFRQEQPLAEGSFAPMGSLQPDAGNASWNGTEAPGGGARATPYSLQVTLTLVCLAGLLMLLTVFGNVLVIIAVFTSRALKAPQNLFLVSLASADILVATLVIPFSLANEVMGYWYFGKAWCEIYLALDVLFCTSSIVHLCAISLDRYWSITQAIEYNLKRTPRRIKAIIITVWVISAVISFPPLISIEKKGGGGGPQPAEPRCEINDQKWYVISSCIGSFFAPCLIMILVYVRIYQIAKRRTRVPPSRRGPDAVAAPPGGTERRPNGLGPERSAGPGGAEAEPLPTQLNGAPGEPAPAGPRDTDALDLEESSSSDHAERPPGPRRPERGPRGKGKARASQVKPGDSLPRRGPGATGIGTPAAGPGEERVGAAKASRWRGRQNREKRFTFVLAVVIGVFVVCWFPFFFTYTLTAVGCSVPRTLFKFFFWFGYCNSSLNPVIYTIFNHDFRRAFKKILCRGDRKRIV

## CCOc1nc(NC(=O)C2(NC(=O)c3ccc4c(c3)c(C)c(-c3ccc(F)cn3)n4C3CCCCC3)CCC2)ccc1/C=C/C(=O)O
[1]
  half-life: 2.4 h
[2]
  logD: > 4.9
[3]
  AUC: 26 µM·h
[4]
  clearance: 1.9 mL/min/kg
[5]
  Kp: 4
[6]
  clearance: 4.2 mL/min/kg
[7]
  half-life: 3 h
[8]
  IC50: 1.4 µM
[9]
  half-life at 2 µM: 0.683 h
[10]
  bioavailability: 42%
[11]
  clearance: 4.1 mL/min/kg
[12]
  bioavailability: 45%
[13]
  Activity: 20%
[14]
  Vd: 0.34 L/kg
[15]
  half-life: 1.7 h
Hepatitis C virus [16]
  EC50: 0.022 µM
[17]
  Vd: 0.34 L/kg
[18]
  Cmax: 4.5 µM
[19]
  Vd: 0.4 L/kg
[20]
  AUC: 14 µM·h
[21]
  Cmax: 5.9 µM
[22]
  half-life at 2 µM: 1.72 h
[23]
  half-life at 2 µM: 0.217 h
[24]
  Cmax: 4.4 µM
[25]
  Papp A→B: 15 ×10⁻⁶ cm/s
[26]
  AUC: 11 µM·h
[27]
  bioavailability: 36%
Hepatitis C virus [28]
  EC50: 0.009 µM
[29]
  half-life at 2 µM: 2.2 h

## Cn1c(-c2ccccn2)c(C2CCCC2)c2ccc(C(=O)NC3(C(=O)Nc4ccc(/C=C/C(=O)O)cc4)CCC3)cc21 [BILB-1941]
Cathepsin G
  IC50: < 10 µM
[30]
  IC50: < 10 µM
[31]
  IC50: < 10 µM
[32]
  IC50: < 10 µM
[33]
  IC50: < 10 µM
Glucocorticoid receptor
  IC50: < 10 µM
D(1A) dopamine receptor
  IC50: < 10 µM
[34]
  IC50: < 10 µM
